Reference: patent US10221163B2 (priority 2015, dated 2019)
Read-outs that look alike come from different tables or passages of the source.

Legend:
IMP-1 = IMP-1 (Serratia marcescens, UniProt P52699); experiment: biochemical; format: biochemical; conditions: fluorescence assay, CCF2-FA substrate, 2 pM enzyme, 2 hours at 25° C.; read-out: IMP-1 IC50
Outline: (§1)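 Inhibitor was mixed with the metallo-β-lactamase and CCF2-FA. After 2 hours at 25° C, fluorescence of the coumarin–fluorescein cephalosporin substrate was read. IC50 was calculated with a 4-parameter fit.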

NDM-1 = NDM-1 (Klebsiella pneumoniae, UniProt C7C422); experiment: biochemical; format: biochemical; conditions: CCF2-FA substrate, 1 pM enzyme, 2 hours at 25° C.
Outline: as §1

VIM-1 = VIM-1 (Pseudomonas aeruginosa (strain ATCC 15692 / DSM 22644 / CIP 104116 / JCM 14847 / LMG 12228 / 1C / PRS 101 / PAO1), UniProt A0A0F7KYQ8); experiment: biochemical; conditions: CCF2-FA substrate, 30 pM enzyme, 2 hours at 25° C.
Outline: as §1

[1] = test system: Escherichia coli expressing NDM-1 (CLB30005, CLB30016); format: cell-based; conditions: with imipenem 1 μg/ml; 95% inhibition of bacterial growth
Outline: (§2)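 Clinical isolates (E. coli NDM-1, S. marcescens IMP-1, K. pneumoniae VIM-1) were diluted 1:100 from saline suspension into 1.1×CAMHB and exposed to test compound with imipenem at 1 μg/ml. Plates were incubated at 35° C for 22 hours to 24 hours, and growth was read by absorbance.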

[2] = test system: Klebsiella pneumoniae expressing VIM-1 (IHMA599644); format: cell-based; conditions: with imipenem 1 μg/ml; 95% inhibition of bacterial growth
Outline: as §2

[3] = test system: Serratia marcescens expressing IMP-1 (CL5741); format: cell-based; conditions: with imipenem 1 μg/ml; 95% inhibition of bacterial growth
Outline: as §2

[4] = test system: Pseudomonas aeruginosa efflux+ (MB9798), IMP-1; format: cell-based; conditions: concentration restoring susceptibility to imipenem at 2 μg/mL in the presence of a class A, C, D serine β-lactamase inhibitor closely related to relebactam
Outline: (§3)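 Steps: add fixed imipenem and/or ceftazidime (usually CLSI breakpoint) and fixed AmpC-directed class A/C inhibitor to microbroth MIC wells; titrate MBL inhibitor; record concentration regaining susceptibility for each PAO1-derived strain; divide efflux+ by efflux− value.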

[5] = test system: Pseudomonas aeruginosa efflux− (MB9799), IMP-1; format: cell-based; conditions: concentration restoring susceptibility to imipenem at 2 μg/mL in the presence of a class A, C, D serine β-lactamase inhibitor closely related to relebactam
Outline: as §3

[6] = test system: Pseudomonas aeruginosa MB9798 vs MB9799; conditions: ratio MITC95 PA_9798/MITC95 PA_9799
Outline: as §3

[7] = fluorescence assay, read-out: NDM-1 IC50
[8] = fluorescence assay, read-out: VIM-1 IC50

Chain of NDM-1 (C7C422 whole entry, looked up, species assumed): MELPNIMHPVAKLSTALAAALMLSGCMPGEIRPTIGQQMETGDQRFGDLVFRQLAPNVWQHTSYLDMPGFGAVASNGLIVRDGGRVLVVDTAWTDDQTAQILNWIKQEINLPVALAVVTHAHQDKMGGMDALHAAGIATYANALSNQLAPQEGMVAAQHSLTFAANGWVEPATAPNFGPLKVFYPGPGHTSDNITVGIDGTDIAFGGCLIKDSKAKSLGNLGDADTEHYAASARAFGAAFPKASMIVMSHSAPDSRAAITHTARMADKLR
Chain of IMP-1 (P52699 whole entry, looked up, species assumed): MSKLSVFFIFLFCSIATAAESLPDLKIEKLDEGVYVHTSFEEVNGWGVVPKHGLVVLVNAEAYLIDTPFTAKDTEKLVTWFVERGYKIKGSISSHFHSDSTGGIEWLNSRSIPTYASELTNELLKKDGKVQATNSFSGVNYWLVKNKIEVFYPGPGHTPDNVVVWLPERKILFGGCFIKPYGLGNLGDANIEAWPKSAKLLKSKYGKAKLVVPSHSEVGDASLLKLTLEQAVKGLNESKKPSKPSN

| SMILES | IC50 (IMP-1) | IC50 (NDM-1; [7]) | IC50 (VIM-1; [8]) | Escherichia coli expressing NDM-1 (CLB30016) MITC95 [1] | Klebsiella pneumoniae expressing VIM-1 (IHMA599644) MITC95 [2] | Serratia marcescens expressing IMP-1 (CL5741) MITC95 [3] | P. aeruginosa expressing IMP-1, efflux + (MB9798) MITC95 [4] | P. aeruginosa expressing IMP-1, efflux − (MB9799) MITC95 [5] | Efflux ratio [6] | IC50 (VIM-1; VIM-1 IC50, fluorescence assay) | IC50 (NDM-1; NDM-1 IC50, fluorescence assay) |
| --- | --- | --- | --- | --- | --- | --- | --- | --- | --- | --- | --- |
| Nc1nc2c(-c3ccc(S(=O)(=O)NCC4(N)CCOCC4)c(S(N)(=O)=O)c3-c3nnn[nH]3)cccc2s1.O=CO [Example 115, 4-((4-(2-aminobenzo[d]thiazol-4-yl)-2-sulfamoyl-3-(1H-tetrazol-5-yl)phenylsulfonamido)methyl)tetrahydro-2H-pyran-4-aminium formate] | 0.324 nM | 0.0602 nM | 0.388 nM | 3.125 µM | 6.25 µM | 3.125 µM | 3.125 µM | 3.125 µM | 1.00 |  |  |
| CC(CN)NS(=O)(=O)c1ccc(-c2cccc3sc(N)nc23)c(-c2nnn[nH]2)c1S(N)(=O)=O.O=CO (stereo not drawn) [Example 116, 2-(4-(2-aminobenzo[d]thiazol-4-yl)-2-sulfamoyl-3-(1H-tetrazol-5-yl)phenylsulfonamido)propan-1-aminium formate] | 0.267 nM | 0.0239 nM |  | 1.563 µM | 3.125 µM | 1.563 µM | 0.7813 µM | 1.563 µM | 0.50 | 0.265 nM |  |
| Nc1nc2c(-c3ccc(S(=O)(=O)NCC4CCNC4)c(S(N)(=O)=O)c3-c3nnn[nH]3)cccc2s1.O=CO (stereo not drawn) [Example 120, 3-((4-(2-aminobenzo[d]thiazol-4-yl)-2-sulfamoyl-3-(1H-tetrazol-5-yl)phenylsulfonamido)methyl)pyrrolidin-1-ium formate] | 0.258 nM | 0.0495 nM |  | 1.563 µM | 3.125 µM | 1.563 µM | 0.7813 µM | 1.563 µM | 0.50 | 0.202 nM |  |
| CN(C[C@@H]1CCCN1)S(=O)(=O)c1ccc(-c2cccc3sc(N)nc23)c(-c2nnn[nH]2)c1S(N)(=O)=O.O=CO [Example 121, (S)-2-((4-(2-aminobenzo[d]thiazol-4-yl)-N-methyl-2-sulfamoyl-3-(1H-tetrazol-5-yl)phenylsulfonamido)methyl)pyrrolidin-1-ium formate] | 2.84 nM | 1.42 nM | 7.08 nM | 6.25 µM | 12.5 µM | 3.125 µM | 12.5 µM | 3.125 µM | 4.00 |  |  |
| Nc1nc2c(-c3ccc(S(=O)(=O)NCCC(N)CF)c(S(N)(=O)=O)c3-c3nnn[nH]3)cccc2s1.O=CO (stereo not drawn) [Example 123, 4-(4-(2-aminobenzo[d]thiazol-4-yl)-2-sulfamoyl-3-(1H-tetrazol-5-yl)phenylsulfonamido)-1-fluorobutan-2-aminium formate] | 0.219 nM | 0.036 nM |  | 1.563 µM | 3.125 µM | 1.563 µM | 1.563 µM | 1.563 µM | 1.00 | 0.189 nM |  |
| Nc1nc2c(-c3ccc(S(=O)(=O)NCCC(N)C(F)F)c(S(N)(=O)=O)c3-c3nnn[nH]3)cccc2s1.O=CO (stereo not drawn) [Example 124, 4-(4-(2-aminobenzo[d]thiazol-4-yl)-2-sulfamoyl-3-(1H-tetrazol-5-yl)phenylsulfonamido)-1,1-difluorobutan-2-aminium formate] | 0.222 nM |  |  | 12.5 µM | 12.5 µM | 3.125 µM | 12.5 µM | 3.125 µM | 4.00 | 0.254 nM | 0.00652 nM |
| C[C@H](N)CNS(=O)(=O)c1ccc(-c2cccc3sc(N)nc23)c(-c2nnn[nH]2)c1S(N)(=O)=O.O=CO [Example 127, (S)-4-(2-aminobenzo[d]thiazol-4-yl)-N1-(2-aminopropyl)-3-(1H-tetrazol-5-yl)benzene-1,2-disulfonamide, formate salt] | 0.322 nM | 0.0421 nM |  | 3.125 µM | 3.125 µM | 1.563 µM | 1.563 µM | 1.563 µM | 1.00 | 0.236 nM |  |
| COC(=O)[C@H]1C[C@@H](NS(=O)(=O)c2ccc(-c3cccc4sc(N)nc34)c(-c3nnn[nH]3)c2S(N)(=O)=O)CN1 [Example 128, Methyl (2R,4R)-4-((4-(2-aminobenzo[d]thiazol-4-yl)-2-sulfamoyl-3-(1H-tetrazol-5-yl)phenyl)sulfonamido)pyrrolidine-2-carboxylate] | 0.177 nM | 0.0443 nM |  | 3.125 µM | 12.5 µM | 6.25 µM | 6.25 µM | 6.25 µM | 1.00 | 0.199 nM |  |
| NS(=O)(=O)c1c(S(=O)(=O)N[C@@H]2CCNC2)ccc(-c2cccc3nc(O)[nH]c23)c1-c1nnn[nH]1 [Example 130, (R)-4-(2-hydroxy-1H-benzo[d]imidazol-7-yl)-N1-(pyrrolidin-3-yl)-3-(1H-tetrazol-5-yl)benzene-1,2-disulfonamide] | 0.684 nM | 0.0529 nM | 0.151 nM | 1.563 µM | 3.125 µM | 1.563 µM | 0.7813 µM | 1.563 µM | 0.50 |  |  |
| NS(=O)(=O)c1c(S(=O)(=O)N[C@@H]2CCNC2)ccc(-c2cccc3c2OC(F)(F)O3)c1-c1nnn[nH]1 [Example 131, (R)-4-(2,2-difluorobenzo[d][1,3]dioxol-4-yl)-N1-(pyrrolidin-3-yl)-3-(1H-tetrazol-5-yl)benzene-1,2-disulfonamide] | 1.83 nM | 0.275 nM | 0.12 nM | 1.563 µM | 1.563 µM | 3.125 µM | 12.5 µM | 0.7813 µM | 16.00 |  |  |
| N#Cc1cccc(-c2ccc(S(=O)(=O)N[C@@H]3CCNC3)c(S(N)(=O)=O)c2-c2nnn[nH]2)c1N [Example 132, (R)-2′-amino-3′-cyano-N4-(pyrrolidin-3-yl)-2-(1H-tetrazol-5-yl)-[1,1′-biphenyl]-3,4-disulfonamide] | 1.4 nM | 0.114 nM | 0.124 nM | 0.7813 µM | 1.563 µM | 1.563 µM | 3.125 µM | 0.7813 µM | 4.00 |  |  |
| NS(=O)(=O)c1c(S(=O)(=O)N[C@@H]2CCNC2)ccc(-c2ccc3nonc3c2)c1-c1nnn[nH]1 [Example 133, (R)-4-(benzo[c][1,2,5]oxadiazol-5-yl)-N1-(pyrrolidin-3-yl)-3-(1H-tetrazol-5-yl)benzene-1,2-disulfonamide] | 0.816 nM | 0.341 nM | 0.118 nM | 0.7813 µM | 1.563 µM | 1.563 µM | 6.25 µM | 0.7813 µM | 8.00 |  |  |
